Data reported in patent US9085549B2, “Compounds for the treatment of neurodegenerative diseases” (ProteoTech Inc., priority 2011, dated 2015).
Like-named read-outs stand apart in the source and are kept apart here. Each block holds one compound with its values, some of them ahead of it.

Columns and labels:
[1] = molecular target: T1, α-synuclein fibrils (Homo sapiens (Human), UniProt P37840); assay: Thioflavin T fluorometry: disruption/disaggregation of pre-formed α-synuclein fibrils; type: biochemical; settings: for Emax: 48 h, read-out: Max % Decrease
Method: The biological activity of the compounds provided herein as disruptors/inhibitors of Parkinson's disease α-synuclein fibrils was assessed by determining the efficacy of the compounds to cause a disassembly/disruption of pre-formed Parkinson's disease α-synuclein fibrils. In one study, Thioflavin T fluorometry was used to determine the effects of the compounds, and […]).
In one study, Thioflavin T fluorometry was used to determine the effects of the compounds on α-synuclein fibrils. In addition to test compounds, this experiment included a positive control compound and a negative control compound for reference.
For each compound, the % inhibition of Thioflavin T fluorescence (i.e. the decrease compared to control reactions containing α-synuclein alone) was plotted against the log of the concentration of the test compound (expressed as mole ratio relative to α-synuclein).

[2] = tested on: BE-M17 human neuroblastoma cells stably transfected with A53T-mutant human α-synuclein; assay: Thioflavin S staining of rotenone-induced α-synuclein aggregates in cells; type: cell-based; settings: for inhibition at 0.5 µM / inhibition at 2 µM / inhibition at 1 µM / inhibition at 5 µM: Homo sapiens, Neuroblastoma cell, read-out: Efficacy % Inhibition
[3] = molecular target: α-synuclein (Homo sapiens (Human), UniProt P37840); assay: Circular dichroism spectroscopy: inhibition of α-synuclein β-sheet formation; type: biochemical; settings: read-out: Max % Inhibition
Method: For this purpose, α-synuclein was obtained from rPeptide as a lyophilized salt in 1 mg aliquots. Buffer components and other solvents were obtained from Sigma as A.C.S. Reagent grade or higher. […] After 24 hours, reactions were diluted 20-fold in PBS and CD spectra for each reaction were acquired on a Jasco J-810 spectropolarimeter using a 0.1 cm path length cell. All spectra were recorded with a step size of 0.1 nm, a bandwidth of 1 nm, and an α-synuclein concentration of 0.05 mg/ml. The spectra were trimmed at the shortest wavelength that still provided a dynode voltage less than 600V. The trimmed spectra were then subjected to a data processing routine beginning with noise reduction by Fourier transform followed by subtraction of a blank spectrum (vehicle only without α-synuclein). These blank corrected spectra were then zeroed at 260 nm and the units converted from millidegrees to specific ellipticity.
These percent β-sheet values were then used to provide the respective relative % inhibition of β-sheet induced by the compounds at given molar ratio of test compound:α-synuclein.

[4] = molecular target: T1, α-synuclein fibrils; assay: biochemical; settings: 48 h, read-out: Max % Decrease
[5] = molecular target: human TauRD (Q244-E372 of Tau441) (Homo sapiens (Human), UniProt P10636); assay: Thioflavin S fluorometry: inhibition of tau protein fibril formation; type: biochemical; settings: for IC50: read-out: ThioS (IC50)
Method: Methods Mol Biol, 2005. 299: p. 35-51]. […] (with shaking at 800-1000 rpm for day).
The Thio S fluorometry assay as a primary screening method to identify tau protein aggregation inhibitors from our small molecule library. Aggregated tau fibrils were prepared in the presence of equimolar ratios of TauRD and heparin (10 μM each) in 20 mM Na-phosphate buffer, pH7.4. The reaction mixture was incubated at 37° C. with shaking (800-1000 rpm) for 22-24 hr (or for 3 days). In the Thio S inhibition assays, test compounds at 0, 0.1, 1, 10 and 100 μM were added at time 0 into the reaction containing TauRD and heparin. The same reaction mixture (+/− increasing concentrations of compounds) but without TauRD were also set up in parallel to serve as background controls. For all test compounds background fluorescence readings were very low, usually <5% of those of the TauRD-containing wells. For each compound, the IC50 was calculated using Prism version 5 software (GraphPad Software) by nonlinear regression [(Log [inhibitor] vs. normalized response; variable slope)]. […] The Thio S screening results are summarized in Table 7 (in which the reactions were incubated for 22 hours).

[6] = molecular target: TauRD (Homo sapiens (Human), UniProt P10636); assay: Circular dichroism spectroscopy: tau protein β-sheet formation
Method: CD spectroscopy was also performed to determine each compound's potency in inhibiting β-sheet secondary structure in TauRD under aggregation-prone conditions. The CD spectroscopy and Thio S assays were typically analyzed in parallel from the same sample preparation in order to correlate the results from two independent assays. CD spectra were taken from the samples containing +/− TauRD with increasing concentrations of compounds, and collected at 25° C. on a JASCO Model J-810 Spectropolarimeter. […] Since CD spectra reflect a total population of secondary structures (including random coil, β-sheet, and various intermediate conformers) of TauRD proteins under a given condition, the CD scores were established based on (1) the CD spectra derived from TauRD mixtures with different ratios of random coil/β-sheet; (2) time-dependent conformational changes of TauRD.

[7] = molecular target: T1, α-synuclein fibrils
[8] = tested on: A53T α-synuclein-expressing BE-M17 cells; assay: XTT assay: rotenone-induced cell death; type: cell-based, human
[9] = Thioflavin T fluorescence, 2-day incubation
[10] = rotenone 0.5 μM, compound 0.5 μM
[11] = inhibition of β-sheet formation, 24 hours
[12] = Homo sapiens, read-out: Max % Inhibition
[13] = TauRD and heparin 10 μM each, incubated for 22 hours
[14] = Homo sapiens; read-out: Max % Inhibition
[15] = Homo sapiens, read-out: % inhibition of cell death

human TauRD (Q244-E372 of Tau441), sequence (P10636 561-689): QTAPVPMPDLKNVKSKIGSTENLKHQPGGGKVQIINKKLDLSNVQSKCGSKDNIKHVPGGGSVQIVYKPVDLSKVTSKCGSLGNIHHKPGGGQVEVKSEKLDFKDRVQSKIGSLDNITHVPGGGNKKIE
TauRD, sequence (P10636 561-689): as above

Compound: Oc1ccc(-c2nnc(-c3cc(O)c(O)cc3Br)o2)cc1O [SA-55]
ThioS (IC50, μM) [5]: no inhibition
CD [6]: −

Compound: Oc1ccc(-c2nsc(-c3ccc(O)c(O)c3)n2)cc1O [SA-57]
Emax [1, 9]: 100%
% inhibition of Thioflavin T fluorescence ([1]; test compound:α-synuclein molar ratio of 1:1): 83%
% inhibition of Thioflavin T fluorescence ([1]; test compound:α-synuclein molar ratios ≧5:1): 97-100%
Emax [3, 11]: 100%
% inhibition of Congo red binding ([7]; test compound:α-synuclein molar ratio of 5:1): 49%
% inhibition of Congo red binding ([7]; test compound:α-synuclein molar ratio of 50:1): 66%
Emax [4]: 66%

Compound: Oc1ccc(-c2cc(Br)c(-c3ccc(O)c(O)c3)s2)cc1O [SA-59]
Efficacy % Inhibition [2]: 67%
inhibition at 1 µM [2]: 69%
inhibition at 2 µM [2]: 76%
inhibition at 5 µM [2]: 56%
IC50 ([8]; Homo sapiens): 3.1 µM
Emax [8, 12]: 63%

Compound: COc1ccc(-c2cc(-c3ccc(OC)c(OC)c3)c(-c3ccc(OC)c(OC)c3)s2)cc1OC [SA-60, 2,3,5-tri(3′,4′-dimethoxyphenyl)thiophene]
inhibition of rotenone-induced cell death (in words) [8]: significant, dose-dependent inhibition
IC50 ([8]; Homo sapiens): 12.5 µM
Emax [8, 12]: 33%
ThioS (IC50, μM) [5, 13]: no inhibition

Compound: Oc1ccc(-c2ccc(-c3cc(O)c(O)c(O)c3)s2)cc1O [SA-63, 5-(5-(3,4-dihydroxyphenyl)thiophen-2-yl)benzene-1,2,3-triol]
IC50 [5, 13]: 10.1 ± 0.56 µM
CD ([6]; semi-quantitative CD score, aggregated TauRD): +

Compound: Oc1ccc(-c2cnc(-c3ccc(O)c(O)c3)o2)cc1O [SA-70]
Emax [1]: 100%
IC50 ([8]; Homo sapiens): 5.6 µM
Emax [8, 12]: 78%
Emax ([3]; 24 h): 92%
Emax [4]: 88%

Compound: Oc1ccc(-c2cnco2)cc1O [SA-73]
Max % Decrease [1, 9]: 100%
EC50 (mole ratio) ([1]; Thioflavin T fluorescence, moles of test compound per mole of α-synuclein, 6.9 μM pre-formed fibrils, 2 days): 0.52 mole ratio
disruption/disassembly of preformed α-synuclein fibrils (in words) ([1]; molar ratios 50:1 to 0.01:1): dose-dependent and extensive disruption/disassembly
inhibition of rotenone-induced cell death (in words) ([8]; 500 nM rotenone): significant, dose-dependent inhibition
Max % Inhibition ([8]; inhibition of cell death, 500 nM rotenone): 77%
IC50 ([8]; inhibition of cell death, 500 nM rotenone; read-out: IC50): 35 to 75 µM
Max % Decrease ([7]; Congo red binding, 2-day incubation): 35%
EC50 (mole ratio) ([7]; Congo red binding, moles of test compound per mole of α-synuclein, 2 days): 1.1 mole ratio

Compound: O=C(/C=C/c1ccc(O)c(O)c1)c1ccc(O)c(O)c1 [SA-94]
Emax [1]: 100%
inhibition at 0.5 µM [2]: 70%
inhibition at 1 µM [2]: 63%
inhibition at 2 µM [2]: 85%
IC50 ([8]; Homo sapiens): 2.3 µM
inhibition at 3.5 µM [8, 15]: 35%
inhibition at 15 µM [8, 15]: 58%
Emax [8, 12]: 58%
Emax ([3]; 24 h): 95%
Emax [4]: 65%

Compound: O=C(/C=C/c1ccc(O)c(O)c1)c1cc(O)c(O)cc1Br [SA-96]
Emax [1]: 100%
inhibition at 0.5 µM [2]: 73%
inhibition at 1 µM [2]: 82%
inhibition at 2 µM [2]: 81%
IC50 ([8]; Homo sapiens): 4.3 µM
Emax [8, 12]: 61%
Emax ([3]; 24 h): 100%
Emax [4]: 72%

Compound: Oc1ccc(Cc2cc(O)c(O)cc2O)cc1O [SA-97]
Emax [1, 9]: 99%
IC50 ([8]; Homo sapiens; read-out: IC50): 39 µM
Emax [8, 14]: 42%
Emax [3, 11]: 100%
Emax [4]: 40%

Compound: CC(=O)N1N=C(c2ccc(O)c(O)c2)CC1c1ccc(O)c(O)c1 (centres unmarked) [SA-98]
Emax [1]: 100%
inhibition at 0.5 µM [2]: 74%
inhibition at 1 µM [2]: 76%
IC50 ([8]; Homo sapiens): 48 µM
Emax [8, 12]: 56%
Emax ([3]; 24 h): 100%
Emax [4]: 44%

Second part, led by results:

Emax [1, 9]: 98%
Emax [3, 11]: 100%
Emax [4]: 57%
Compound: Oc1ccc(-c2nc3cc(O)c(O)cc3o2)cc1O [SA-54]
inhibition at 0.5 µM [2, 10]: 80%
inhibition at 2 µM ([2]; rotenone 0.5 μM, compound 2 μM): 83%
inhibition at 1 µM ([2]; rotenone 2 μM, compound 1 μM): 56%

ThioS (IC50, μM) [5, 13]: no inhibition
Compound: Oc1ccc(-c2ccc(Br)s2)cc1O [SA-62]

Emax [1, 9]: 100%
Emax [3, 11]: 100%
IC50 [5, 13]: 17.6 µM
Emax [4]: 85%
Compound: Oc1ccc(-c2cnc(-c3ccc(O)c(O)c3)s2)cc1O [SA-64]
IC50 ([8]; Homo sapiens; read-out: IC50): 2.6 µM
Emax [8, 14]: 100%

Emax [1, 9]: 76%
Emax [3, 11]: 100%
Emax [4]: 25%
Compound: Oc1ccc(-c2nnc(-c3ccc(O)c(O)c3)o2)cc1O [SA-67]
inhibition at 0.5 µM [2, 10]: 75%
inhibition at 1 µM ([2]; rotenone 0.5 μM, compound 1 μM): 48%
inhibition at 2 µM ([2]; rotenone 0.5 μM, compound 2 μM): 92%
IC50 ([8]; Homo sapiens; read-out: IC50): 8.5 µM
Emax [8, 14]: 44%

Emax [1]: 100%
Emax ([3]; 24 h): 100%
Compound: Oc1ccc(-c2cn(-c3ccc(O)c(O)c3)nn2)cc1O [SA-68]
inhibition at 1 µM ([2]; rotenone 0.5 μM, compound 1 μM): 69%
inhibition at 5 µM ([2]; rotenone 0.5 μM, compound 5 μM): 73%
inhibition at 5 µM ([2]; rotenone 2 μM, compound 5 μM): 44%
IC50 ([8]; Homo sapiens; read-out: IC50): 24 µM
Emax [8, 14]: 61%

Emax [1, 9]: 100%
Emax [3, 11]: 91%
Emax [4]: 62%
Compound: Oc1ccc(Cc2cc(O)c(O)cc2I)cc1O [SA-93]
inhibition at 2 µM ([2]; rotenone 2 μM, compound 2 μM): 45%
IC50 ([8]; Homo sapiens; read-out: IC50): 19.8 µM
Emax [8, 14]: 100%

Emax [1, 9]: 100%
Emax [3, 11]: 97%
Emax [4]: 64%
Compound: O=C(/C=C/c1cc(O)c(O)cc1Br)c1ccc(O)c(O)c1 [SA-95]
inhibition at 0.5 µM [2, 10]: 73%
inhibition at 1 µM ([2]; rotenone 0.5 μM, compound 1 μM): 98%
inhibition at 2 µM ([2]; rotenone 0.5 μM, compound 2 μM): 90%
inhibition at 0.5 µM ([2]; rotenone 2 μM, compound 0.5 μM): 95%
IC50 ([8]; Homo sapiens; read-out: IC50): 3.8 µM
Emax [8, 14]: 63%

Emax [1, 9]: 100%
Emax [3, 11]: 98%
Emax [4]: 54%
Compound: O=[N+]([O-])c1cc(-c2ccc(O)c(O)c2)ccc1-c1ccc(O)c(O)c1 [SA-99]
